Toxic doses and inconclusive results are not listed. No stated cut-off is given here; in the data, active means T/C of 150% or more; inactive means T/C below 125%.
Test system: L1210 leukemia ip in BDF1 mice, survival T/C
Test: NCI In Vivo Anticancer Drug Screen. Data for tumor model L1210 Leukemia (intraperitoneal) in B6D2F1 (BDF1) mice
Conditions: endpoint: mean survival time, higher = longer survival
How it was run: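 Transplantable tumor model; survival measured in treated vs vehicle control mice. Value = treated/control.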

[1] = dose: 100.0 mg/kg/injection, schedule: Q01DX009 (ip), vehicle: saline with Tween-80
[2] = dose: 200.0 mg/kg/injection, schedule: Q01DX009 (ip), vehicle: saline with Tween-80
[3] = dose: 400.0 mg/kg/injection, schedule: Q01DX009 (ip), vehicle: saline with Tween-80
[4] = dose: 100.0 mg/kg/injection, schedule: Q01DX001 (ip), vehicle: saline
[5] = dose: 200.0 mg/kg/injection, schedule: Q01DX001 (ip), vehicle: saline
[6] = dose: 400.0 mg/kg/injection, schedule: Q01DX001 (ip), vehicle: saline

Measured: T/C

CC1(C)C[n+]2noc([O-])c2C(C)(C)C1
inactive: dose: 0.19 mg/kg/injection, schedule: Q04DX003 (ip), vehicle: alcohol 104 % of control | dose: 0.39 mg/kg/injection, schedule: Q01DX009 (ip), vehicle: alcohol 100 % of control | dose: 0.39 mg/kg/injection, schedule: Q04DX003 (ip), vehicle: alcohol 96 % of control | dose: 0.78 mg/kg/injection, schedule: Q01DX009 (ip), vehicle: alcohol 105 % of control | dose: 0.78 mg/kg/injection, schedule: Q04DX003 (ip), vehicle: alcohol 113 % of control | dose: 1.56 mg/kg/injection, schedule: Q01DX009 (ip), vehicle: alcohol 105 % of control | dose: 1.56 mg/kg/injection, schedule: Q04DX003 (ip), vehicle: alcohol 96 % of control

CC(C)(C)n1cc(C(=O)c2ccccc2)cc1-c1ccccc1
inactive: [1] 91 % of control | [2] 91 % of control | [3] 87 % of control

CN(C(=O)CCC(=O)O)c1cc([N+](=O)[O-])ccc1OCc1ccccc1
inactive: dose: 50.0 mg/kg/injection, schedule: Q01DX001 (ip), vehicle: saline 108 % of control | [4] 100 % of control | [5] 105 % of control | [6] 109 % of control

S=C1N/N=C/NN/C=N/N1
inactive: dose: 10.0 mg/kg/injection, schedule: Q01DX001 (ip), vehicle: saline 105 % of control | dose: 20.0 mg/kg/injection, schedule: Q01DX001 (ip), vehicle: saline 94 % of control

O=C1OC(c2ccccc2)(c2ccccn2)c2ccccc21 (configuration not stated)
inactive: [1] 90 % of control | [2] 92 % of control | [3] 88 % of control

Cc1nn(C2CC(O)C(CO)O2)c(=O)[nH]c1=O (configuration not stated)
inactive: [4] 98 % of control | [5] 95 % of control | [6] 93 % of control

— PubChem BioAssay AID248 (DTP/NCI, 2004)
